The assay addresses T1, human glycogen phosphorylase a (Homo sapiens, UniProt P06737).
T1 sequence (P06737 2-847 limits assumed): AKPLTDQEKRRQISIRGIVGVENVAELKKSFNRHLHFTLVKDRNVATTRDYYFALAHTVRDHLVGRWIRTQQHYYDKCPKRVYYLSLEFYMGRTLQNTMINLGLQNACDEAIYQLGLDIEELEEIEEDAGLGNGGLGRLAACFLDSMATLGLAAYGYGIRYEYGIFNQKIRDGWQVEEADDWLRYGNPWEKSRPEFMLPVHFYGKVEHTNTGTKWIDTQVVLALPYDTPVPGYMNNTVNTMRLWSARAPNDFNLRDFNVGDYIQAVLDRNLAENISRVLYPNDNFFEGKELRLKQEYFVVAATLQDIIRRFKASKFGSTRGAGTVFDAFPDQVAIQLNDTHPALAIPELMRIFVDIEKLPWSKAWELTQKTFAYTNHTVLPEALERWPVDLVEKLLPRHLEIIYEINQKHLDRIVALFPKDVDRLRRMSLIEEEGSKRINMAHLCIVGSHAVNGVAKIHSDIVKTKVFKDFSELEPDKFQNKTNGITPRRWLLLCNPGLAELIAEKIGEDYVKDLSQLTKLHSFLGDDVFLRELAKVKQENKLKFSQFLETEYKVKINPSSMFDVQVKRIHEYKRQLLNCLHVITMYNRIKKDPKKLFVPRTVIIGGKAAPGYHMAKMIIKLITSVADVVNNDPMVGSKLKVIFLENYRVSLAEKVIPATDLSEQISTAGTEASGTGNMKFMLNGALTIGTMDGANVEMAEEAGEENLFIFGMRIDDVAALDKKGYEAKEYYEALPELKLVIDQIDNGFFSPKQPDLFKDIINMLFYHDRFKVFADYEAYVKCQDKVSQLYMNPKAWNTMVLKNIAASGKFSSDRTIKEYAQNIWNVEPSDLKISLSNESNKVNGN
Description: Glycogen phosphorylase a activity assay (reverse direction, liberation of inorganic phosphate). Conditions: 10 μM test substance; in vitro inhibition of glycogen phosphorylase a. Format: biochemical.
Description: Glycogen phosphorylase a Activity Assay
All the reactions were carried out as duplicate determinations in microtiter plates with 96 wells (Half Area Plates, Costar No 3696), measuring the change in absorption owing to the formation of the reaction product at the wavelength specified hereinafter in a Multiskan Ascent Elisa Reader (Lab Systems, Finland).
In order to measure the GPa enzymic activity in the reverse direction, the general method of Engers et al. (Engers H D, Shechosky S, Madsen N B, Can J Biochem 1970 July; 48(7):746-754) was used to measure the conversion of glucose 1-phosphate into glycogen and inorganic phosphate, with the following modifications: human glycogen phosphorylase a (for example with 0.76 mg of protein/ml (Aventis Pharma Deutschland GmbH), dissolved in buffer solution E (25 mM β-glycerophosphate, pH 7.0, 1 mM EDTA and 1 mM dithiothreitol) was diluted with buffer T (50 mM Hepes, pH 7.0, 100 mM KCl, 2.5 mM EDTA, 2.5 mM MgCl2.6H2O) and addition of 5 mg/ml glycogen to a concentration of 10 μg of protein/ml. […] The baseline glycogen phosphorylase a activity in the absence of test substance was determined by adding 10 μl of buffer solution T (0.1% DMSO). […] After incubation at 45° C. for 60 minutes, the absorption at 820 nm was measured. […]

Consider `Cc1ccc(C)n1Nc1cc2c(=O)c(C(=O)O)cn(Cc3ccccc3)c2cc1Cl` [Example 42, 1-Benzyl-7-chloro-6-(2,5-dimethylpyrrol-1-ylamino)-4-oxo-1,4-dihydroquinolone-3-carboxylic acid], for which the % inhibition (commonly the change of the read-out against control, counted positive when it falls) at 10 μM is 101%.

`CCn1cc(C(=O)OCOC(=O)C(C)(C)C)c(=O)c2cc(Nn3c(C)ccc3C)c(Cl)cc21` [Example 53, 2,2-Dimethylpropionyloxymethyl 7-chloro-6-(2,5-dimethylpyrrol-1-ylamino)-1-ethyl-4-oxo-1,4-dihydroquinolone-3-carboxylate]: the “% inhibition at 10 μM” value was 93%.

These data come from patent publication US7498341B2, “Heterocyclically substituted 7-amino-4-quinolone-3-carboxylic acid derivatives, process for their preparation and their use as medicaments” (Sanofi Aventis Deutschland GmbH, priority 2004, dated 2009).
